These results are taken from patent US20170326232A1, “INTRATUMORAL ADMINISTRATION OF PARTICLES CONTAINING A TOLL-LIKE RECEPTOR 9 AGONIST AND A TUMOR ANTIGEN FOR TREATING CANCER” (Dynavax Technologies Corporation, priority 2016, published 2017).

Common to all, as to type: physicochemical
Data set [1] can be described thus: Adsorption of CpG-ODN to aluminum hydroxide, quantified by UV absorbance at 260 nm. The note with it: for % D61-04 Bound: Al(OH)3 1.0 mg; for D61-01 binding: co-adsorption with AH1 CII peptide.
The nature of data set [2]: Solubilization of peptide antigens in buffers and organic solvents (visual assessment). Set-up: key to Qualitative Solubility score: 1 = fully soluble/clarity similar to water; 2 = partially soluble; 3 = insoluble.
Data set [3] is described as follows: Adsorption of peptide antigens to aluminum hydroxide, quantified by UV, amino acid analysis or RP-HPLC. The note with it: RP-HPLC at 215 nm.
Setting [4] is: 10 mM NaOAc, 150 mM NaCl, pH 7.0.
The mark [5] stands for this setting: input 0.25 mg to 1 mg aluminum hydroxide, pH 7.0.
The mark [6] stands for this setting: input 0.50 mg to 1 mg aluminum hydroxide, pH 7.0.
Setting [7] is: input 1.0 mg to 1 mg aluminum hydroxide, pH 7.0.
[8] abbreviates: input 1.5 mg to 1 mg aluminum hydroxide, pH 7.0.

The solubility is how much of the substance goes into solution per volume.

“And” between values parts separate entries of the source, which are not always exact repeats. Equal values may be shown once. Read-outs that look alike come from different tables or passages of the source. Square brackets hold non-standard residues; d marks the D form. Ends that are not written are not given here. PEG24 = NCCOCCOCCOCCOCCOCCOCCOCCOCCOCCOCCOCCOCCOCCOCCOCCOCCOCCOCCOCCOCCOCCOCCOCCOCCC(=O)O; Cha = N[C@@H](CC1CCCCC1)C(=O)O

“5′-TCGAACGTTCGAACGTTCGAACGTTCGAAT-3′ (DNA TCGAACGTTCGAACGTTCGAACGTTCGAAT; DNA, all phosphorothioate, methylation of C not given here) [D61-04]”: the “maximum bound by 1 mg of aluminum hydroxide” value in data set [1] (setting [4]) was 1.1 mg. The Binding efficiency in data set [1] (setting [5]) is listed as 100%; in data set [1] (setting [6]) it was 100%; in data set [1] (setting [7]) it was 89%; in data set [1] (setting [8]), 73%. Moreover, the Bound in data set [1] (setting [5]) is reported as 0.25 mg; in data set [1] (setting [6]), 0.50 mg; in data set [1] (setting [7]) it was 0.89 mg; in data set [1] (setting [8]), 1.1 mg. In addition, the “% D61-04 Bound” value in data set [1] (pH 6.5, D61-04 input 1.0 mg) is listed as 92%; in data set [1] (pH 6.5, D61-04 input 1.5 mg), 78%; in data set [1] (pH 6.5, D61-04 input 2.0 mg) it was 63%; in data set [1] (pH 7.0, D61-04 input 1.0 mg) it was 91%; in data set [1] (pH 7.0, D61-04 input 1.5 mg) it was 73%; in data set [1] (pH 7.0, D61-04 input 2.0 mg) it was 61%. Moreover, the “% D61-04 Bound” value was determined as 92% in data set [1] (pH 7.5, D61-04 input 1.0 mg); 74% in data set [1] (pH 7.5, D61-04 input 1.5 mg); 60% in data set [1] (pH 7.5, D61-04 input 2.0 mg).

For the substance “5′-TCGGCGC-3′-HEG-5′-AACGTTC-3′-HEG-5′-TCGGCGC-3′ (DNA TCGGCGCAACGTTCTCGGCGC; HEG spacers, phosphorothioate linkages, chemistry not fully specified) [D61-01]”, the “maximum bound by 1 mg of aluminum hydroxide” value in data set [1] (setting [4]) was found to be 1.0 mg. The “D61-01 Binding efficiency” value in data set [1] (10 mM NaOAc, 150 mM NaCl, pH 7.0, Table S3-1) is 71-100%. Also, the D61-01 binding in data set [1] (2.5 mg of aluminum) was found to be 86%; in data set [1] (four out of five conditions), 100%. The D61-01 binding efficiencies in data set [1] (co-adsorption with HPV16 peptide, two reactions) is 74% and 80%. Besides, the Binding efficiency was 100% in data set [1] (setting [5]), 100% in data set [1] (setting [6]), 99% in data set [1] (setting [7]) and 65% in data set [1] (setting [8]). Besides, the Bound was 0.25 mg in data set [1] (setting [5]), 0.50 mg in data set [1] (setting [6]), 0.99 mg in data set [1] (setting [7]) and 0.97 mg in data set [1] (setting [8]).

For “CSGLEQLESIINFEKLTEWTSSNVMEERKIKV [OVApep]”, the solubility in data set [2] (0.1 M sodium bicarbonate buffer, 0.1 M sodium bicarbonate, pH 8 buffer, read-out: solubility) is 2000 to 4000 µg/mL; in data set [2] (water, PBS or sodium acetate (NaOAc) buffers), “not appreciably soluble”.

On to “HRQLQLSISSCLQQLSLLMWITQCFLPVFLAQ [NY-ESO-1142-173 OLP]”, for which the “Qualitative Solubility score” value in data set [2] (Acetic acid) stood at 1; in data set [2] (Acetone), 1; in data set [2] (Ethanol), 1; in data set [2] (Formic acid), 1; in data set [2] (Isoamyl alcohol), 3; in data set [2] (Isopropyl acetate) it was 3. Moreover, the “Qualitative Solubility score” value in data set [2] (Methyl acetate) and in data set [2] (n-Butyl acetate) was 3 throughout. In addition, the “Visual Appearance” value in data set [2] (Acetic acid) is on record as “clear”; in data set [2] (Acetone) it was “clear”; in data set [2] (Ethanol), “clear”; in data set [2] (Formic acid) it was “clear”; in data set [2] (Isoamyl alcohol), “hazy”; in data set [2] (Isopropyl acetate) it was “hazy/insoluble”. Besides, the “Visual Appearance” value in data set [2] (Methyl acetate) and in data set [2] (n-Butyl acetate) was “hazy/insoluble” each time. For the same substance, the “solubility after dilution of solvent” value in data set [2] (six solvents diluted to 20% solvent/80% water (v/v), data not shown) is “remained visually soluble”. Moreover, the “(%) binding efficiency to aluminum hydroxide” value in data set [3] (2-Butanol), in data set [3] (Acetic acid), in data set [3] (Acetone), in data set [3] (Ethanol), in data set [3] (Formic acid) and in data set [3] (Isopropyl alcohol) was 100% in each case.

On to “[PEG24]VGALEGPRNQDWLAK[Cha]VAAWTLKAAATAYRYHLLSSVYDFFVWLSC [Triple, PEG24-VGALEGPRNQDWLAKXVAAWTLKAAATAYRYHLLSSVYDFFVWLSC wherein X = L-cyclohexylalanine]”, for which the solubility entry is “not appreciably soluble” in data set [2] (0.1 M sodium bicarbonate pH 8 buffer, water, PBS, sodium bicarbonate or NaOAc buffers) and 1000 to 5000 µg/mL in data set [2] (6M guanidine hydrochloride pH 8.5 or 20% IPA/water (v/v), read-out: solubility).
